Data reported in US20030087861A1, “Combined approach to treatment of cancer using a c-myc antisense oligomer” (priority 2001, published 2003).

Legend:
[1] = tested on: c-myc protein; assay: Immunoblot analysis of c-myc protein in LLC1 tumor lysates; format: in vivo, mouse; conditions: for effect on c-myc levels in tumor tissue (in words): compared to saline
Protocol: Immunoblot analysis of c-myc protein. All antibodies were obtained from Santa Cruz Biotechnology (Santa Cruz, Calif.). Three-hundred micrograms of LLC1 protein lysate was analyzed on a 5% SDS/acrylamide stacking gel with a 12% v/v sodium dodecylsulfate (SDS)/acrylamide separating gel. Gels were blotted, probed, and visualized according to standard Western blotting protocols. Membranes were probed with rabbit anti-mouse c-myc polyclonal antibodies N-262 (sc-764) or C-19 (sc-788) diluted 1:2000 in blocking buffer (Genotech) followed by goat-anti rabbit HRP-conjugated antibody (sc-2054). The relative amount of c-myc and actin protein was visualized by ECLplus (Amersham, Piscataway, N.J.) and analyzed on a Kodak 440 Image Station using 1 D Image Analysis software (Kodak, Rochester N.Y.). Membranes were then soaked in stripping buffer (Genotech) for 20 minutes at 25° C. and reprobed with a 1:2000 dilution of goat anti-mouse β-actin polyclonal antibody (sc-1616), which served as a protein loading control, followed by donkey anti-goat HRP-conjugated antibody (sc-2056).
An initial study was performed to determine AVI-4126 levels in the tumor and to evaluate sequence specific inhibition of c-myc protein levels. Tumor bearing mice 24 days post LLC1 transplant were given injections of either saline, AVI-4126 or scrambled control (100 μg/mouse IP). Tumors were excised 4 hours later and evaluated for AVI-4126 and analyzed by immunoblot for c-myc protein, as described below.
Animals were treated as described. Therapeutic efficacy was evaluated based on daily measurement of tumor area (length x width, cm^2) with digital calipers and tumor mass determined at the time of euthanization. Mice in all studies were euthanized by asphyxiation with CO2 on the final day of PMO treatments. Tumors were immediately removed, weighed and approximately 0.25 g tumor tissue was homogenized in 1.0 ml Tissue-PE lysis buffer (Genotech, St. Louis, Mo.) containing protease inhibitor cocktail tablets (Complete™ Mini EDTA-free, Boehringer-Mannheim) which were dissolved in the lysis buffer 30 minutes before tissue homogenization. Lysates were centrifuged at 15,000× g for 15 minutes at 4° C. and 150 μl aliquots of supernatant were combined 1:1 with electrophoresis sample buffer and boiled at 100° C. for 5 minutes.

[2] = tested on: Lewis lung carcinoma (LLC1) tumors; assay: Lewis lung carcinoma (LLC1) subcutaneous tumor model, tumor area growth and tumor mass; format: in vivo, C57BL/6J mice; set-up: Tumor Growth Rate (TGR): unit not given beside the values; conditions: for Tumor Mass (gm ± STE): LLC1 tumor bearing mice, IP dosing per Table 2, combinations in alternating regimen (chemotherapy days 2-4, 14-16; PMO days 6-12, 18-23), mass at euthanization; for Tumor Growth Rate (TGR): linear regression of change in tumor area day 14 to 25, slope ± standard deviation, IP dosing per Table 2, combinations in alternating regimen; for antitumor effect / tumor growth (in words): single agent, or staggered (alternating) regimen with the PMO after chemotherapy; for % of Saline TGR: tumor growth rate relative to saline group, combinations in alternating regimen
Protocol: Examples are described in Smith et al., 2000. The model is based on the transplantation of Lewis lung cells (LLC1), a highly tumorigenic lung carcinoma cell line, into syngeneic […] mice. LLC1 produce discernable tumors by day 4 when 200,000 cells are transplanted subcutaneously onto the right flanks of C57-BL mice. Therapeutic efficacy was evaluated based on daily caliper measurements of tumor length and width and tumor weights at the end of 25 day studies. A 20 base PMO antisense to c-myc mRNA (AVI-4126, SEQ ID NO:1) was evaluated for efficacy in the model. […] AVI-4126 was also administered i.p. (300 μg/mouse/day) in combination with chemotherapy. Co-administration of cisplatin (83 μg/mouse/day) on days 2-4 and 13-15 with AVI-4126 on days 2-8 and 13-19 had no additional effect on tumor growth inhibition versus cisplatin alone (Example 1).
Tumor cells. The Lewis lung cell line (LLC1) used in the studies described herein was derived from the Lewis lung carcinoma established in 1951 by Dr. M. R. Lewis and has been utilized for the evaluation of cancer chemotherapeutic agents Mayo, 1972; Bertram et al., 1980). Lewis lung carcinoma cells (ATCC, Manassas, Va.) were maintained in DMEF-12 medium supplemented with 10% fetal bovine serum, penicillin (100 units/mL), streptomycin (100 μg/mL), and amphotericin (0.25 μg/mL) at 37° C. in a 5% CO2/95% air humidified incubator. Cells were harvested as an approximately 70% confluent culture of log growth phase at the time of transplant and were injected as a cell suspension in media at a concentration of 200,000 cells per 100 μl injection.
Syngeneic mice. C57BL/6J mice (Simonsen, Gilroy, Calif.) weighing 22 to 24 g were housed in sterile plastic cages at the Laboratory Animal Resources Facility at Oregon State University (OSU), Corvallis, Oreg. Mice were given access to rodent chow (Harlan Teklad, Madison, Wis.) and tap water ad libitum and exposed to 12 hour light/dark cycles. All animal protocols conformed to the ethical guidelines of the 1975 Declaration of Helsinki and were approved by the ‘Institutional Animal Care and Use Committee’ of OSU.
Statistical Analysis. All data are reported as the mean ±SEM were determined by the computer program InStat2 (GraphPad, San Diego). The p values were calculated by InStat2 using ANOVA and the Tukey multiple comparison test. Graphs, linear regression, and slopes were generated using Prism v2.0 (GraphPad).
Tumor studies with AVI-4126 and Chemotherapy Following a 5 day acclimation period, C57BL/6J mice (Simonsen, Gilroy, CA) cared for as set forth above, were anesthetized with isoflurane, shaved, and injected subcutaneously in the right rear flank with approximately 200,000 viable LLC1 cells (study day 0). Injection sites were monitored daily to ensure that solid, homogeneous tumor growth was consistently obtained 4 days after LLC1 cell injection. Chemotherapy injections were prepared fresh daily before i.p injection (see Table 1). All PMO's and cisplatin (Sigma, St. Louis, Mo.) were dissolved in sterile, apyrogenic saline (Sigma) adjusted to an injection volume of 0.1 ml. A Taxol stock solution (6 mg/ml in Cremophore EL and ethanol, Bristol Myers Squibb, Syracuse, N.Y.) was diluted to 1 mg/ml in 1× PBS prior to injection. Etoposide (Sigma) stock solutions were prepared by dissolving in 70% ethanol at 11 mg/ml followed by dilution with saline to a final concentration of 5 mg/ml. 5-FU (Calbiochem) was dissolved in saline at a concentration of 12.5 mg/ml.
Animals were treated as described. Therapeutic efficacy was evaluated based on daily measurement of tumor area (length x width, cm^2) with digital calipers and tumor mass determined at the time of euthanization. Mice in all studies were euthanized by asphyxiation with CO2 on the final day of PMO treatments. […]

[3] = ICP-MS detection and quantitation of platinum/cisplatin in LLC1 tumor tissue; format: in vivo, C57BL/6J mice; conditions: data not shown
Protocol: ICP-MS Detection and Quantitation of platinum/cisplatin. A 200 μL aliquot of tissue lysate (40 mg of LLC1 tumor tissue) was dissolved in 1.33 mL of aqua regia followed by a 10 fold dilution. The samples were then analyzed by ICP-MS technique for the presence of Pt according to the method of Long et al (16) by Anatek Labs (Moscow, ID).

[4] = set-up: species or system C57BL/6J mice; conditions: mouse, in vivo, ip
Protocol: HPLC detection of AVI-4126 in LLC1 tumor tissue. The presence of AVI-4126 in tumor tissue lysates (prepared 4 hours after a single injection of 100 μg of AVI-4126 into tumor bearing mice) was determined via a 5′-flouresceinyl DNA:AVI-4126 (FDNA:AVI-4126) duplex detection method developed at AVI BioPharma (Corvallis, Oreg.). Briefly, 500 ng of internal standard (10 μl of a […] of 0.025M Tris buffer, pH=8) of a 15mer internal PMO standard complementary to the FDNA probe (5′-GAGGGGCATCGTCGC-3′ (SEQ ID NO: 14)) was added to each tumor tissue lysate. The lysate was combined with 250 μl methanol and mixed thoroughly. The sample was centrifuged 10 minutes at 15,000× g and the supernatant was removed and heated to 70° C. for g 10 minutes. […]
The entire 100 μl sample was then analyzed for the presence of FDNA:AVI-4126 duplex using reverse phase HPLC with fluorescence detection. The sample was injected into a Dionex DNAPac PA-100 column (4×250) using a Varian HPLC pump (model 9010 inert) equipped with a fluorescence detector and Al-200 autosampler (100 μl injector loop volume). […] The pump gradient program was 90% A+10% B (0 min) and 55% A+45% B (20 min.) at a flow rate of 1.5 ml/min with fluorescence detection at a 494 nm (excitation) and 518 nm emission wavelengths. […]

[5] = single injection 100 μg/mouse IP, tumors excised 4 hours later, FIG. 5A

Compound: N.N.[Cl][Pt][Cl] [cisplatin, cis-diamminedichloroplatinum]
- effect on c-myc levels in tumor tissue (in words) [1]: no statistical difference
- Tumor Mass (gm ± STE) [2]: 0.550 ± 0.081 gm
- necropsy appearance of tumors ([2]; cisplatin alone, and cisplatin plus co-administered AVI-4126): highly invasive and vascularized
- Tumor Growth Rate (TGR) [2]: 0.101 ± 0.011
- antitumor effect / tumor growth (in words) [2]: significantly lower
- % of Saline TGR [2]: 49.5%

Compound: COc1cc([C@@H]2c3cc4c(cc3[C@@H](O[C@@H]3O[C@@H]5CO[C@@H](C)O[C@H]5[C@H](O)[C@H]3O)[C@H]3COC(=O)[C@H]23)OCO4)cc(OC)c1O [etoposide]
- Tumor Mass (gm ± STE) [2]: 0.970 ± 0.244 gm
- Tumor Growth Rate (TGR) [2]: 0.153 ± 0.025
- % of Saline TGR [2]: 75.0%

Compound: RAD51AS: control PMO, mouse RAD51 sequence: CAAGCTGCATTTGCATAGCCAT (antisense CAAGCTGCATTTGCATAGCCAT; all phosphorodiamidate morpholino (PMO))
- Tumor Mass (gm ± STE) [2]: 1.193 ± 0.166 gm
- Tumor Growth Rate (TGR) [2]: 0.198 ± 0.017
- % of Saline TGR [2]: 97.1%

Compound: AVI-4126: 20 base PMO antisense to c-myc translation start site: ACGTTGAGGGGCATCGTCGC (antisense ACGTTGAGGGGCATCGTCGC; all phosphorodiamidate morpholino (PMO))
- inhibition of c-myc levels compared to saline control, n-terminal antibody ([1]; band intensity normalized to β-actin, AVI-4126 alone 300 μg/mouse/day IP, FIG. 6A): 74%
- inhibition of c-myc levels compared to saline control, c-terminal antibody ([1]; band intensity normalized to β-actin, AVI-4126 alone 300 μg/mouse/day IP, FIG. 6B): 61%
- reduction of c-myc levels relative to saline control [1, 5]: 77%
- reduction of c-myc levels relative to scrambled PMO control [1, 5]: 63%
- effect of AVI-4126 administration on platinum levels in tumor tissue [3]: did not effect platinum levels
- Tumor Mass (gm ± STE) [2]: 1.788 ± 0.651 gm
- Tumor Growth Rate (TGR) [2]: 0.212 ± 0.031
- antitumor effect / tumor growth (in words) [2]: failed to significantly reduce tumor growth
- % of Saline TGR [2]: 103.9%
- FDNA:AVI-4126 duplex fluorescence peak in tumor tissue lysate [4]: readily detectable
- degradation of AVI-4126 in tumor tissue [4]: No evidence of degradation

Compound: CC(=O)O[C@H]1C(=O)[C@@]2(C)[C@H]([C@H](OC(=O)c3ccccc3)[C@]3(O)C[C@H](OC(=O)[C@H](O)[C@@H](NC(=O)c4ccccc4)c4ccccc4)C(C)=C1C3(C)C)[C@]1(OC(C)=O)CO[C@@H]1C[C@@H]2O [Taxol, Paclitaxel]
- Tumor Mass (gm ± STE) [2]: 1.827 ± 0.210 gm
- Tumor Growth Rate (TGR) [2]: 0.234 ± 0.023
- % of Saline TGR [2]: 114.7%

Compound: p21AS: control PMO, mouse p21 sequence: CATCACCAGGATTGGACATGG (antisense CATCACCAGGATTGGACATGG; all phosphorodiamidate morpholino (PMO))
- Tumor Mass (gm ± STE) [2]: 1.260 ± 0.389 gm
- Tumor Growth Rate (TGR) [2]: 0.184 ± 0.030
- % of Saline TGR [2]: 90.2%

Compound: scrambled control PMO: c-myc antisense scramble control PMO: ACTGTGAGGGCGATCGCTGC (ACTGTGAGGGCGATCGCTGC; all phosphorodiamidate morpholino (PMO))
- effect on c-myc levels in tumor tissue (in words) [1]: no effect
